Measurements reported in US20200131144A1, “AMINE OR (THIO)AMIDE CONTAINING LXR MODULATORS” (Phenex-FXR GmbH, priority 2017, published 2020).

Tests used:
[1] = molecular target: T1, GST-LXRβ ligand-binding domain (Homo sapiens, UniProt P55055, INS174Q); experiment: TR-FRETβ activity assay (NCoA3 coactivator peptide recruitment); type: biochemical; settings: 1 μM 24(S)-25-epoxycholesterol as prestimulating agonist; inverse agonist unless *
T1 construct: amino acids 156-461; NP009052; made in house; host or cells: E. coli
T1 sequence (P55055 with tags, fused parts or gaps INS174Q limits assumed): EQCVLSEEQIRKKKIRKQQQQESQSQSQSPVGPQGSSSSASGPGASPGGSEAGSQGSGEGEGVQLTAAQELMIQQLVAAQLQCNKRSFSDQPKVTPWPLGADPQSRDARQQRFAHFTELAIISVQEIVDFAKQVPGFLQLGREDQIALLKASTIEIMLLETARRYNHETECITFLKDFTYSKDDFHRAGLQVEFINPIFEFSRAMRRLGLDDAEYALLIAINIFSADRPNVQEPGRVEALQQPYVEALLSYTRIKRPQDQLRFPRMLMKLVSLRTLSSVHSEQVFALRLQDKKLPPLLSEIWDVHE
Protocol: The tested compounds were usually dissolved, tested and stored as 20 mM stock solutions in DMSO. […] Sulfonyl acetic acid derivatives are shelf stable as solid at rt for long time as reported by Griesbrecht et al. (Synlett 2010:374) or Faucher et al. (J. Med. Chem. 2004; 47:18). TR-FRETβ Activity Assay Recombinant GST-LXRβ ligand-binding domain (LBD; amino acids 156-461; NP009052; SEQ ID NO:4) was expressed in E. coli and purified via gluthatione-sepharose affinity chromatography. N-terminally biotinylated NCoA3 coactivator peptide (SEQ ID NO:7) was chemically synthesized (Eurogentec). […] Finally, a detection mix was added containing anti GST-Tb cryptate (CisBio; 610SAXLB) and Streptavidin-XL665 (CisBio; 610SAXLB) as fluorescent donor and acceptor, respectively, as well as the coactivator peptide and LXRβ-LBD protein (SEQ ID NO:4). The reaction was mixed thoroughly, equilibrated for 1 h at 4° C. and vicinity of LXRβ and coactivator peptide was detected by measurement of fluorescence in a VictorX4 multiplate reader (PerkinElmer Life Science) using 340 nm as excitation and 615 and 665 nm as emission wavelengths. Assays were performed in triplicates. Final Assay Concentrations of Components: 240 mM KCl, 1 μg/μL BSA, 0.002% Triton-X-100, 125 pg/μL anti GST-Tb cryptate, 2.5 ng/μL Streptavidin-XL665, coactivator peptide (400 nM), LXRP protein ([…], i.e. 76 nM).

[2] = molecular target: T2, LXRα full length (FL) (Homo sapiens, UniProt Q13133); experiment: LXR Gal4 reporter transient transfection assay, mammalian two-hybrid, FL-M2H Gal4α; type: cell-based; settings: HEK293 cells; inverse agonist unless *
T2 construct: the full length (FL) proteins of LXRα (amino acids 1-447); NP005684; expressed in transfected cells; host or cells: HEK293
T2 sequence (Q13133 1-447): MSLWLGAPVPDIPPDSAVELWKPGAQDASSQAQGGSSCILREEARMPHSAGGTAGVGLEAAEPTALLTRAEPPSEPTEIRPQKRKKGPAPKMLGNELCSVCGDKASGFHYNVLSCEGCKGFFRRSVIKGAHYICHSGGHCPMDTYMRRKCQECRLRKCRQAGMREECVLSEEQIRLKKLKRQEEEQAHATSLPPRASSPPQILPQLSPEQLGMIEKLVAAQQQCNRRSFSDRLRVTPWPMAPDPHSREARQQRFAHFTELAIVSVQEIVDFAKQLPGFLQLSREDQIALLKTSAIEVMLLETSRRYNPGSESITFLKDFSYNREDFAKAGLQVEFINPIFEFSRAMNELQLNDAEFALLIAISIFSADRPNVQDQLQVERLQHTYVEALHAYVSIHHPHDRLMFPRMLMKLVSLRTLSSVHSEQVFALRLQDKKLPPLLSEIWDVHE
Protocol: (§1) The tested compounds were usually dissolved, tested and stored as 20 mM stock solutions in DMSO. Since sulfonyl acetic acid derivatives tend to decarboxylate under these conditions, these stock solutions were prepared, tested and stored as 20 mM DMSO stock solutions containing 100 mM trifluoroacetic acid (5 equivalents). Sulfonyl acetic acid derivatives are shelf stable as solid at rt for long time as reported by Griesbrecht et al. (Synlett 2010:374) or Faucher et al. (J. Med. Chem. 2004; 47:18).
(§2) LXR Gal4 Reporter Transient Transfection Assays
(§3) LXRα and LXRβ activity status was determined via detection of interaction with coactivator and corepressor proteins in mammalian two-hybrid experiments (M2H). For this, via transient transfection the full length (FL) proteins of LXRα (amino acids 1-447; NP005684; SEQ ID NO:1) or LXRβ-(amino acids 1-461; NP009052; SEQ ID NO:2) or the ligand-binding domains (LBD) of LXRα (amino acids 155-447 SEQ ID NO:3) or LXR (amino acids 156-461; SEQ ID NO:4) were expressed from pCMV-AD (Stratagene) as fusions to the transcriptional activation domain of NFkB. As cofactors, domains of either the steroid receptor coactivator 1 (SRC1; amino acids 552-887; SEQ ID NO:5) or of the corepressor NCoR (amino acids 1906-2312; NP006302; SEQ ID NO:6) were expressed as fusions to the DNA binding domain of the yeast transcription factor GAL4 (from pCMV-BD; Stratagene). Interaction was monitored via activation of a coexpressed Firefly Luciferase Reporter gene under control of a promoter containing repetitive GAL4 response elements (vector pFRLuc; Stratagene). Transfection efficiency was controlled via cotransfection of constitutively active pRL-CMV Renilla reniformis luciferase reporter (Promega). HEK293 cells were grown in minimum essential medium (MEM) with 2 mM L-glutamine and Earle's balanced salt solution supplemented with 8.3% fetal bovine serum, 0.1 mM non-essential amino acids, 1 mM sodium pyruvate, at 37° C. in 5% CO2. 3.5×10^4 cells/well were plated in 96-well cell culture plates in growth medium supplemented with 8.3% fetal bovine serum for 16-20 h to—90% confluency. For transfection, medium was taken off and LXR and cofactor expressing plasmids as well as the reporter plasmids are added in 30 μL OPTIMEM/well including polyethylene-imine (PEI) as vehicle. Typical amounts of plasmids transfected/well: pCMV-AD-LXR (5 ng), pCMV-BD-cofactor (5 ng), pFR-Luc (100 ng), pRL-CMV (0.5 ng). Compound stocks were prepared in DMSO, prediluted in MEM to a total volume of 120 μL, and added 4 h after addition of the transfection mixture (final vehicle concentration not exceeding 0.2%). Cells were incubated for additional 16 h, lysed for 10 min in 1×Passive Lysis Buffer (Promega) and Firefly and Renilla luciferase activities were measured sequentially in the same cell extract using buffers containing D-luciferine and coelenterazine, respectively. Measurements of luminescence were done in a BMG-luminometer.

[3] = molecular target: T3, LXRβ full length (FL) (Homo sapiens, UniProt P55055, INS174Q); experiment: LXR Gal4 reporter transient transfection assay, mammalian two-hybrid, FL-M2H Gal4β; type: cell-based; settings: HEK293 cells; inverse agonist unless *
T3 construct: the full length (FL) proteins of LXRα (amino acids 1-447); NP005684; NP009052; expressed in transfected cells; host or cells: HEK293
T3 sequence (P55055 with tags, fused parts or gaps INS174Q): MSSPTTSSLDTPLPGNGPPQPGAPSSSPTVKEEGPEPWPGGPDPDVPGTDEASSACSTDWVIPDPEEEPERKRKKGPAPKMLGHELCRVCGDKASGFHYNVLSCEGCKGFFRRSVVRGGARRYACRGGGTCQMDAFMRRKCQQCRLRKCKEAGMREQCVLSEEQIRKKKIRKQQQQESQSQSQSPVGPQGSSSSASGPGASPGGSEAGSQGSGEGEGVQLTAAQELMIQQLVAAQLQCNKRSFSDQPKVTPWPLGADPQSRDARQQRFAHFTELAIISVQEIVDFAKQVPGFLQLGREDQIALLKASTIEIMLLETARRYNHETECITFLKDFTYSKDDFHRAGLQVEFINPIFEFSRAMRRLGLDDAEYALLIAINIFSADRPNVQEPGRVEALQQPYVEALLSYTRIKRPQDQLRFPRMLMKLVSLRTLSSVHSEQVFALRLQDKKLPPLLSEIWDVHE
Protocol: as §1, §2, §3

Row | EC50 [1] [nM] | EC50 [2] [nM] | EC50 [3] [nM] | SMILES
1 | – | – | 100 to 1000 | CC(C)(C(=O)O)c1cccc(-c2ccc(CN(Cc3ccc(C(F)(F)F)o3)C(CF)c3cccc4ccccc34)cc2)c1 (centres unmarked) [Example 18, 2-(4′-(((2-Fluoro-1-(naphthalen-1-yl)ethyl)((5-(trifluoromethyl)furan-2-yl)methyl)amino)methyl)-[1,1′-biphenyl]-3-yl)-2-methylpropanoic acid]
2 | – | – | 1000 to 10000 | Cc1ccc2ccccc2c1C(=O)N(Cc1ccc(-c2cccc(S(=O)(=O)CC(=O)O)c2)cc1)Cc1ccc(C(N)=O)o1 [Example 16, 2-((4′-((N-((5-Carbamoylfuran-2-yl)methyl)-2-methyl-1-naphthamido)methyl)-[1,1′-biphenyl]-3-yl)sulfonyl)acetic acid]
3 | – | – | 1000 to 10000 | Cc1cc(C)c(CC(=O)N(Cc2ccc(-c3cccc(S(=O)(=O)CC(=O)O)c3)cc2)Cc2ccc(C(F)(F)F)o2)c(C)c1 [Example 9/1]
4 | 1000 to 10000 | – | – | Cc1cc(C)c(CN(Cc2ccc(-c3ccc(CO)c(S(=O)(=O)CC(=O)O)c3)cc2)Cc2ccc(C(F)(F)F)o2)c(C)c1 [Example 12, 2-((4-(Hydroxvmethyl)-4′-((((5-(trifluoromethyl)furan-2-yl)methyl)(2,4,6-trimethyl-benzyl)amino)methyl)-[1,1′-biphenyl]-3-yl)sulfonyl)acetic acid]
5 | – | < 100 | < 100 | COc1ccc2nc(C)c(C)c(C(=O)N(Cc3ccc(-c4cccc(C(C)(C)C(=O)O)c4)cc3)Cc3ccc(C(F)(F)F)o3)c2n1 [27/134]
6 | 1000 to 10000 | – | 100 to 1000 | Cc1cc(C)c(CN(Cc2ccc(-c3cc(F)c(CF)c(S(=O)(=O)CC(=O)O)c3)cc2)Cc2ccc(C(F)(F)F)o2)c(C)c1 [Example 20, 2-((5-Fluoro-4-(fluoromethyl)-4′-((((5-(trifluoromethyl)furan-2-yl)methyl)(2,4,6-trimethyl-benzyl)amino)methyl)-[1,1′-biphenyl]-3-yl)sulfonyl)acetic acid]
7 | – | < 100 | < 100 | CC1CCc2ccccc2N1C(=O)N(Cc1ccc(-c2cccc(C(C)(C)C(=O)O)c2)cc1)Cc1ccc(C(F)(F)F)o1 (centres unmarked) [27/96]
8 | > 10000 | – | – | Cc1ccc2ccccc2c1CN(Cc1ccc(C(F)(F)F)o1)Cc1ccc(-c2cccc(S(=O)(=O)CC(=O)O)c2)c2nccn12 [Example 27, 2-((3-(5-((((2-Methylnaphthalen-1-yl)methyl)((5-(trifluoromethyl)furan-2-yl)methyl)amino)methyl)imidazo[1,2-a]pyridin-8-yl)phenyl)sulfonyl)acetic acid]
9 | > 10000 | – | – | Cc1cc(C)c(CN(Cc2ccc(-c3cccc(S(=O)(=O)CC(=O)NS(=O)(=O)N(C)C)c3)cc2)Cc2ccc(C(F)(F)F)o2)c(C)c1 [Example 2/1]

Continued, compound first:

Row | SMILES | EC50 [1] [nM] | EC50 [2] [nM] | EC50 [3] [nM]
10 | Cc1cc(C)c(CN(Cc2ccc(-c3cc(F)cc(S(=O)(=O)CC(=O)O)c3)cc2)Cc2ccc(C(F)(F)F)o2)c(C)c1 [12/1] | 100 to 1000 | 100 to 1000 | 100 to 1000
11 | Cc1cc(F)cc(C)c1C(=O)N(Cc1ccc(-c2cccc(C(C)(C)C(=O)O)c2)cc1)Cc1ccc(C(F)(F)F)o1 [27/49] | 100 to 1000 | < 100 | < 100
12 | COc1cc(-c2cccc(S(=O)(=O)CC(=O)O)c2)ccc1CN(Cc1ccc(C(F)(F)F)o1)Cc1c(C)cc(C)cc1C [15/2] | 1000 to 10000 | – | 1000 to 10000
13 | COc1cc(-c2cc(F)c(CO)c(S(=O)(=O)CC(=O)O)c2)cnc1CN(Cc1ccc(C(F)(F)F)o1)Cc1c(C)ccc2ccccc12 [22/3] | – | 1000 to 10000 | 100 to 1000
14 | O=C(O)CS(=O)(=O)c1cccc(-c2ccc(CN(Cc3ccccc3)Cc3ccc(C(F)(F)F)o3)cc2)c1 [7/11] | – | – | 1000 to 10000
15 | Cc1cc(C)c(CN(Cc2ccc(C(F)(F)F)o2)Cc2sc(-c3cccc(S(=O)(=O)CC(=O)O)c3)cc2Cl)c(C)c1 [15/4] | > 10000 | – | 100 to 1000
16 | O=C(O)CS(=O)(=O)c1cccc(-c2ccc(CN(Cc3ccc(C(F)(F)F)o3)C3CCc4cccc5cccc3c45)cc2)c1 (centres unmarked) [27/40] | > 10000 | – | 1000 to 10000
17 | Cc1cc(C)c(CCN(Cc2ccc(-c3cccc(S(=O)(=O)CC(=O)O)c3)cc2)Cc2ccc(C(F)(F)F)o2)c(C)c1 [7/8] | > 10000 | – | 1000 to 10000
18 | Cc1ccc2ccccc2c1C(=O)N(Cc1ccc(C(F)(F)F)o1)Cc1ccc(-c2cncc(C(C)(C)C(=O)O)c2)cc1C(F)F [27/63] | 100 to 1000 | – | –
19 | Cc1ccc2ccccc2c1C(=O)N(Cc1ccc(-c2cccc(C(C)(C)C(=O)O)c2)cc1)Cc1ccc(C(=O)O)o1 [27/29] | – | 1000 to 10000 | 1000 to 10000
20 | Cc1nc(C)c(CN(Cc2ccc(-c3cc(F)c(CO)c(S(=O)(=O)CC(=O)O)c3)cc2)Cc2ccc(C(F)(F)F)o2)c(C)n1 [22/6] | 1000 to 10000 | – | 1000 to 10000
21 | Cc1cc(C)c(CN(Cc2ccc(-c3cccc(S(=O)(=O)CC(=O)O)c3)cc2)C(=O)c2ccc(C(F)(F)F)o2)c(C)c1 [27/57] | > 10000 | – | –
